Assay results: ChEMBL document CHEMBL4138253, “Synthesis and Biological Evaluation of a Series of Bile Acid Derivatives as FXR Agonists for Treatment of NASH” (ACS Med Chem Lett, 2017); call rule not given here

Key:
[1] = test system: Mus musculus; assay: Anti-hepatic steatosis activity in HFD/CCl4-induced non-alcoholic hepatic steatosis C57BL/6 mouse model assessed as reduction in liver fibrosis at 30 mg/kg, po administered once daily via gavage for 28 days measured at post last dose by sirus red staining based assay; assay type: ADME, organism-based; conditions: in vivo, 672 h
[2] = test system: Mus musculus; assay: Anti-hepatic steatosis activity in HFD/CCl4-induced non-alcoholic hepatic steatosis C57BL/6 mouse model assessed as reduction in hepatic steatosis score at 30 mg/kg, po administered once daily via gavage for 28 days measured at post last dose by hematoxylin-eosin staining based assay; assay type: ADME, organism-based; conditions: in vivo, 672 h
[3] = Drug level in C57BL/6 mouse liver at 2 mg/kg, po administered as single cassette dose via gavage measured at 0.5 hrs post dose by LC-MS/MS analysis; assay type: ADME, organism-based; conditions: in vivo
[4] = Drug level in C57BL/6 mouse liver at 2 mg/kg, po administered as single cassette dose via gavage measured at 3 hrs post dose by LC-MS/MS analysis; assay type: ADME, organism-based; conditions: in vivo
[5] = Drug level in C57BL/6 mouse plasma at 2 mg/kg, po administered as single dose via gavage measured at 0.5 hrs post dose by LC-MS/MS analysis; assay type: ADME, organism-based
[6] = Drug level in C57BL/6 mouse plasma at 2 mg/kg, po administered as single cassette dose via gavage measured at 3 hrs post dose by LC-MS/MS analysis; assay type: ADME, organism-based
[7] = AUC in C57BL/6 mouse at 10 mg/kg, po administered via gavage; assay type: ADME, organism-based; conditions: in vivo
[8] = test system: Mus musculus; assay: AUC in C57BL/6 mouse assessed as glyco-INT-747 level at 10 mg/kg, po administered via gavage; assay type: ADME, organism-based; conditions: in vivo, BLD = below limit of detection
[9] = test system: Mus musculus; assay: AUC in C57BL/6 mouse assessed as tauro-INT-747 level at 10 mg/kg, po administered via gavage; assay type: ADME, organism-based; conditions: in vivo
[10] = Cmax in C57BL/6 mouse at 10 mg/kg, po administered via gavage; assay type: ADME, organism-based; set-up: dose 10 mg/kg, route oral; conditions: in vivo
[11] = test system: Mus musculus; assay: Cmax in C57BL/6 mouse assessed as glyco-INT-747 level at 10 mg/kg, po administered via gavage; assay type: ADME, organism-based; set-up: dose 10 mg/kg, route oral; conditions: in vivo, BLD = below limit of detection
[12] = test system: Mus musculus; assay: Cmax in C57BL/6 mouse assessed as tauro-INT-747 level at 10 mg/kg, po administered via gavage; assay type: ADME, organism-based; set-up: dose 10 mg/kg, route oral; conditions: in vivo
[13] = Tmax in C57BL/6 mouse at 10 mg/kg, po administered via gavage; assay type: ADME, organism-based; conditions: in vivo
[14] = Drug level in C57BL/6 mouse liver at 10 mg/kg, po administered as single dose via gavage measured at 0.5 hrs post dose by LC-MS/MS analysis; assay type: ADME, organism-based; conditions: in vivo
[15] = test system: Mus musculus; assay: Tmax in C57BL/6 mouse assessed as tauro-INT-747 level at 10 mg/kg, po administered via gavage; assay type: ADME, organism-based; conditions: in vivo
[16] = Drug level in C57BL/6 mouse liver at 10 mg/kg, po administered as single dose via gavage measured at 3 hrs post dose by LC-MS/MS analysis; assay type: ADME, organism-based; conditions: in vivo
[17] = Drug level in C57BL/6 mouse plasma at 10 mg/kg, po administered as single dose via gavage measured at 0.5 hrs post dose by LC-MS/MS analysis; assay type: ADME, organism-based
[18] = Drug level in C57BL/6 mouse plasma at 10 mg/kg, po administered as single dose via gavage measured at 3 hrs post dose by LC-MS/MS analysis; assay type: ADME, organism-based
[19] = test system: Mus musculus; assay: Anti-hepatic steatosis activity in HFD/CCl4-induced non-alcoholic hepatic steatosis C57BL/6 mouse model assessed as reduction in triglyceride level at 30 mg/kg, po administered once daily via gavage for 28 days measured at post last dose by […] assay; assay type: ADME, organism-based; conditions: in vivo, 672 h
[20] = target: T1, Bile acid receptor (Homo sapiens, UniProt Q96RI1); assay: Agonist activity at recombinant human GST-tagged FXR LBD (193 to 472 residues) expressed in baculovirus-infected insect cells assessed as recruitment of biotinylated SRC1 peptide measured after 1 hr by Alphascreen assay
T1 sequence (Q96RI1 whole entry): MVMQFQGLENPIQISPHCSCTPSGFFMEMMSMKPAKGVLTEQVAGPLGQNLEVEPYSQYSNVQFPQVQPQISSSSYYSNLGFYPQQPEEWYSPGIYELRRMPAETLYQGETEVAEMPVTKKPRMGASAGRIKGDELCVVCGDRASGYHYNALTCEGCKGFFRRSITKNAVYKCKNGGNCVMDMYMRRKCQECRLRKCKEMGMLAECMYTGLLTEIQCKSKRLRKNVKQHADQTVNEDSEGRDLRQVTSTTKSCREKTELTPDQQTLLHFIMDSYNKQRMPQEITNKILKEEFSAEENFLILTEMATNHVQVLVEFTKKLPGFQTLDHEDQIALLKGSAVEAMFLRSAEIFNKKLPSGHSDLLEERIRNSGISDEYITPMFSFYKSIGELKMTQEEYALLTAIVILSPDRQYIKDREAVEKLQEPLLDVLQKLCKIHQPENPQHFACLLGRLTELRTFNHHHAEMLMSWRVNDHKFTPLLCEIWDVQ

[21] = target: T2, G-protein coupled bile acid receptor 1 (Homo sapiens, UniProt Q8TDU6); assay: Agonist activity at human TGR5 expressed in HEK293 cells assessed as increase in intracellular cAMP level after 1 hr by TR-FRET assay; assay type: functional, cell-based
T2 sequence (Q8TDU6 whole entry): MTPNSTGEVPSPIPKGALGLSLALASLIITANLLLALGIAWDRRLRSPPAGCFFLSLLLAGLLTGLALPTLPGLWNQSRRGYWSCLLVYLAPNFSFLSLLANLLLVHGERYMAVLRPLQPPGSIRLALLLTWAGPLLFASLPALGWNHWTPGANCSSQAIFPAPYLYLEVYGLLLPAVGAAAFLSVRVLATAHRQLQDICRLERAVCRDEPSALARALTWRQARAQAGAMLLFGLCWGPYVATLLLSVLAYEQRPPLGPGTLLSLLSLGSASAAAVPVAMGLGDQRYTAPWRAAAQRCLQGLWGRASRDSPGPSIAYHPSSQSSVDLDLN

[22] = Ratio of drug level in liver to plasma in C57BL/6 mouse at 2 mg/kg, po administered as single cassette dose via gavage measured at 0.5 hrs post dose; assay type: ADME, organism-based
[23] = Ratio of drug level in liver to plasma in C57BL/6 mouse at 2 mg/kg, po administered as single cassette dose via gavage measured at 3 hrs post dose; assay type: ADME, organism-based
[24] = species: Homo sapiens; assay: Selectivity ratio of EC50 for recombinant human GST-tagged FXR LBD (193 to 472 residues) expressed in baculovirus-infected insect cells to EC50 for human TGR5 expressed in HEK293 cells
[25] = test system: Mus musculus; assay: AUC in C57BL/6 mouse assessed as INT-747 level at 10 mg/kg, po administered via gavage; assay type: ADME, organism-based; conditions: in vivo
[26] = test system: Mus musculus; assay: Cmax in C57BL/6 mouse assessed as INT-747 level at 10 mg/kg, po administered via gavage; assay type: ADME, organism-based; set-up: dose 10 mg/kg, route oral; conditions: in vivo
[27] = test system: Mus musculus; assay: Tmax in C57BL/6 mouse assessed as INT-747 level at 10 mg/kg, po administered via gavage; assay type: ADME, organism-based; conditions: in vivo
[28] = Drug metabolism in C57BL/6 mouse liver assessed as INT-747 level at 10 mg/kg, po administered as single dose via gavage measured at 0.5 hrs post dose by LC-MS/MS analysis; assay type: ADME, organism-based; conditions: in vivo
[29] = Drug metabolism in C57BL/6 mouse liver assessed as INT-747 level at 10 mg/kg, po administered as single dose via gavage measured at 3 hrs post dose by LC-MS/MS analysis; assay type: ADME, organism-based; conditions: in vivo
[30] = Drug metabolism in C57BL/6 mouse plasma assessed as INT-747 level at 10 mg/kg, po administered as single dose via gavage measured at 3 hrs post dose by LC-MS/MS analysis; assay type: ADME, organism-based; conditions: in vivo
[31] = Ratio of drug level in C57BL/6 mouse liver to plasma at 10 mg/kg, po administered as single dose via gavage measured at 0.5 hrs post dose by LC-MS/MS analysis; assay type: ADME, organism-based
[32] = Ratio of drug level in C57BL/6 mouse liver to plasma at 10 mg/kg, po administered as single dose via gavage measured at 3 hrs post dose by LC-MS/MS analysis; assay type: ADME, organism-based
[33] = Drug metabolism in C57BL/6 mouse assessed as ratio of INT-747 level in liver to plasma at 10 mg/kg, po administered as single dose via gavage measured at 0.5 hrs post dose by LC-MS/MS analysis; assay type: ADME, organism-based; conditions: other tissue
[34] = Drug metabolism in C57BL/6 mouse assessed as ratio of INT-747 level in liver to plasma at 10 mg/kg, po administered as single dose via gavage measured at 3 hrs post dose by LC-MS/MS analysis; assay type: ADME, organism-based; conditions: other tissue
[35] = test system: Mus musculus; assay: Anti-hepatic steatosis activity in HFD/CCl4-induced non-alcoholic hepatic steatosis C57BL/6 mouse model assessed as reduction in hepatic steatosis score administered once daily via oral gavage for 28 days measured at post last dose by hematoxylin-eosin staining based assay; assay type: ADME, organism-based; conditions: in vivo, 672 h
[36] = test system: Mus musculus; assay: Anti-hepatic steatosis activity in HFD/CCl4-induced non-alcoholic hepatic steatosis C57BL/6 mouse model assessed as reduction in liver fibrosis administered once daily via oral gavage for 28 days measured at post last dose by sirus red staining based assay; assay type: ADME, organism-based; conditions: in vivo, 672 h
[37] = test system: Mus musculus; assay: Anti-hepatic steatosis activity in HFD/CCl4-induced non-alcoholic hepatic steatosis C57BL/6 mouse model assessed as reduction in triglyceride level administered once daily via oral gavage for 28 days measured at post last dose by […] assay; assay type: ADME, organism-based; conditions: in vivo, 672 h
[38] = target: T1, Bile acid receptor; assay: Agonist activity at recombinant human Gal4-fused FXR expressed in CHO cells measured after 22 hrs by luciferase reporter gene assay; assay type: cell-based
[39] = target: T3, Bile acid receptor (Homo sapiens) (UniProt Q96RI1); assay: Agonist activity at recombinant human Gal4-fused FXR expressed in CHO cells measured after 22 hrs by luciferase reporter gene assay relative to CDCA; assay type: cell-based
T3 sequence (whole entry): T1 sequence (Q96RI1 whole entry)

SMILES | Drug uptake [3] | Drug uptake [4] | concentration at 0.5 h [5] | concentration at 3 h [6] | AUC [7] | AUC [8] | AUC [9] | Cmax [10] | Cmax [11] | Cmax [12] | Tmax [13] | Drug uptake [14] | Tmax [15] | Drug uptake [16] | concentration at 0.5 h [17] | concentration at 3 h [18] | EC50 [21] | Kp at 0.5 h [22] | Kp at 3 h [23] | further results
CC[C@H]1[C@@H](O)[C@@H]2[C@H](CC[C@]3(C)[C@@H]([C@H](C)CCC(=O)O)CC[C@@H]23)[C@@]2(C)CC[C@@H](O)C[C@@H]12 [OBETICHOLIC ACID] | 711 nmol/kg | 625 nmol/kg | 151 nM | 64 nM | 0.713 µM·h | Bld | 18.059 µM·h | 1540 nM | Bld | 838 nM | 15 min | 1723 nmol/kg | 480 min | 111 nmol/kg | 478 nM | 10 nM |  |  |  | Activity [1]: Active; Activity [2]: Active; Activity [19]: Active
CC[C@H]1[C@@H](O)[C@@H]2[C@H](CC[C@]3(C)[C@@H]([C@H](C)CCc4nnn[nH]4)CC[C@@H]23)[C@@]2(C)CC[C@@H](O)C[C@@H]12 | 5693 nmol/kg | 1443 nmol/kg | 868 nM | 19 nM |  |  |  |  |  |  |  |  |  |  |  |  | 1770 nM | 7 | 76 | EC50 [20]: 60 nM
CC[C@H]1[C@@H](O)[C@@H]2[C@H](CC[C@]3(C)[C@@H]([C@H](C)CCC(=O)NS(C)(=O)=O)CC[C@@H]23)[C@@]2(C)CC[C@@H](O)C[C@@H]12 | 7183 nmol/kg | 1361 nmol/kg | 136 nM | 15 nM | 1.19 µM·h | Bld | 5.416 µM·h | 610 nM | Bld | 270 nM | 30 min | 27920 nmol/kg | 480 min | 15560 nmol/kg | 388 nM | 298 nM | 700 nM | 53 | 124 | Ratio EC50 [24]: 14; AUC [25]: 0.216 µM·h; Cmax [26]: 446 nM; Tmax [27]: 30 min; Drug uptake [28]: 2863 nmol/kg; Drug uptake [29]: 1486 nmol/kg; concentration [30]: 126 nM; Kp at 0.5 h [31]: 53; Kp at 3 h [32]: 52; Ratio [33]: 21; Ratio [34]: 12; Activity [35]: Dose-dependent effect; Activity [36]: Dose-dependent effect; Activity [37]: Dose-dependent effect; EC50 [38]: 50 nM; Efficacy [39]: 191%
